Assay results as given in patent publication US8652463B1, “Dietary supplement to reduce the occurrence of migraines and treat their symptoms” (priority 2011, dated 2014).

Assays:
[1] = test system: acute migraine; experiment: Patient case reports: acute (rescue/abortive) migraine therapy; assay type: in vivo, human; conditions: for success for acute migraine: historically, before the regimen
[2] = test system: migraine headaches; conditions: for effect of preventive on migraine frequency: Patient two, before the regimen, ELAVIL 75 mg orally at bedtime, prednisone brief rounds
[3] = Patient three, history before the regimen

Compound: CC(CN1c2ccccc2Sc2ccccc21)N(C)C (stereo not shown) [phenegran]
- success for acute migraine ([1]; Patient one): moderate success

Compound: O=C(c1ccccc1)c1ccc2n1CCC2C(=O)O (stereo not shown) [TORADOL]
- response for acute migraine rescue [1, 3]: poor response
- response to abortive therapy ([1]; human, in vivo, po): good response

Compound: Clc1ccc2nsnc2c1NC1=NCCN1 [ZANAFLEX]
- side effects of migraine prevention ([2]; human, in vivo): cognitive dysfunction

Compound: CNS(=O)(=O)Cc1ccc2[nH]cc(CCN(C)C)c2c1 [IMITREX]
- course of response for acute migraine rescue [1, 3]: worked well initially, but became ineffective
- response for acute migraine rescue [1, 3]: poor response
- response of migraines to acute therapy ([1]; Patient two, 100 mg orally, prior to breast cancer diagnosis, two to three migraines per month): responded well
- response to rescue medication ([1]; Patient two, while using the regimen and ELAVIL): more responsive to a single dose

Compound: botulinum toxin [BOTOX]
- migraine remission / frequency ([2]; human, in vivo): complete remission of migraines to once per month

Compound: CC1(C)O[C@@H]2[C@@H](CO[C@@]3(COS(N)(=O)=O)OC(C)(C)O[C@@H]23)O1 [TOPAMAX]
- migraine reduction and severity with preventive ([2]; Patient one): poor migraine reduction and severity
- effect of preventive on migraine frequency [2]: did not reduce migraine frequency
- side effects of migraine prevention ([2]; human, in vivo): cognitive dysfunction
- side effects of migraine preventive ([2]; human, in vivo): alopecia
- tolerance of migraine preventive ([2]; human, in vivo): poor tolerance

Compound: CN(C)CCC=C1c2ccccc2CCc2ccccc21 [ELAVIL]
- effect of preventive on migraine frequency [2]: did not reduce migraine frequency
- side effects of migraine preventive ([2]; human, in vivo): weight gain

Compound: CN(C)CCc1c[nH]c2ccc(Cn3cncn3)cc12 [MAXALT]
- response for acute migraine rescue [1, 3]: poor response

Compound: CC(C)(C#N)c1cc(Cn2cncn2)cc(C(C)(C)C#N)c1 [ARMIDEX]
- effect on migraines (adverse) ([2]; human, in vivo): more frequent, disabling, and less responsive

Compound: C[C@]12C=CC(=O)C=C1CC[C@@H]1[C@@H]2C(=O)C[C@@]2(C)[C@H]1CC[C@]2(O)C(=O)CO [prednisone]
- effect of preventive on migraine frequency [2]: short-lived migraine reduction

Compound: CC(C)C[C@H](CN)CC(=O)O [LYRICA]
- side effects of migraine preventive ([2]; human, in vivo): fluid retention and confusion

Compound: CN[C@@H]1CCc2[nH]c3ccc(C(N)=O)cc3c2C1 [FROVA]
- success for acute migraine ([1]; Patient one): moderate success
- success as rescue drug ([1]; Patient one, while using the regimen): with success
